{"source": "patent US10751353B2", "about": "“Compositions and methods for treating an aggregation disease or disorder” (Seelos Therapeutics, Inc., priority 2013, dated 2020)", "key": {"[1]": {"assay": "Preclinical PK study: plasma and muscle concentrations of trehalose after IV bolus and oral gavage", "format": "in vivo, male Sprague-Dawley (SD) rats", "experimental": "The plasma and muscle concentrations of trehalose in male Sprague-Dawley (SD) rats was determined after intravenous bolus (IV) and oral gavage (PO) administration.\nThe study included 42 SD rats (male, 250 to 350 grams in weight, the Shanghai SLAC Laboratory Animal Co. Ltd.). Animals were administered with a volume of 5 ml/kg trehalose formulation (trehalose dihydrate in sterilized water at 200 mg/mL) to achieve a nominal dose of 1 gr/kg, intravenously or orally.\nBlood samples were collected after each dose administration and processed for plasma. Muscle samples (hind leg muscle) were collected and homogenized. The concentrations of trehalose in plasma and muscle homogenate samples were analyzed by qualified bioanalytical LC/MS/MS methods.\nPlasma concentration data of trehalose was subjected to a non compartmental pharmacokinetic analysis using WinNonlin software program (version 6.3, Pharsight, Mountain View, Calif.). Zero-time intercept concentration (C0), volume of distribution (Vdss), Clearance (Cl) peak plasma concentrations (Cmax) and the corresponding peak times (Tmax), terminal half-life (T½), mean residence time (MRT) from time zero to the last time point (MRT0-last), MRT from time zero to infinity (MRT0-inf), the area under the plasma concentration-time curve (AUC) from time zero to the last time point (AUC0-last) and AUC from time zero extrapolated to infinity (AUC0-inf) were calculated using the linear/log trapezoidal rule. Nominal sampling times were used to calculate all pharmacokinetic parameters since there was not any deviation larger than 5% between the actual and nominal sampling times.\nThe values of muscle to plasma concentration and AUC ratio (M/P ratio) were both calculated."}, "[2]": {"test_system": "Mouse", "settings": "cited from earlier work; for LD50: Mouse"}, "[3]": {"test_system": "Rat", "settings": "cited from earlier work"}, "[4]": {"test_system": "Dog", "settings": "cited from earlier work; for LD50: Dog"}, "[5]": {"settings": "cited from earlier work"}, "[6]": {"settings": "cited from earlier work", "remark": "listed apart in the source"}, "[7]": {"settings": "rabbits; 500 mg intravenously; cited from earlier work"}, "[8]": {"test_system": "mutant PABPN1 proteins", "settings": "OPMD cell models; cited from earlier work"}, "[9]": {"test_system": "OPMD mouse model", "settings": "cited from earlier work"}, "[10]": {"settings": "male, Sprague-Dawley, rat, in vivo, iv, 1000 mg/kg"}, "[11]": {"settings": "male, Sprague-Dawley, rat, in vivo, po, 1000 mg/kg"}}, "note": "Values joined by “and” are separate entries in the source; they are usually repeats but may differ in a detail not shown here. Equal values may be shown once. Read-outs that look alike come from different tables or passages of the source.", "data": [{"smiles": "OC[C@H]1O[C@H](O[C@H]2O[C@H](CO)[C@@H](O)[C@H](O)[C@H]2O)[C@H](O)[C@@H](O)[C@@H]1O", "note": "[trehalose]", "values": [{"measurement": "tolerability at the given dosage", "setting": "[1]; 1000 mg/kg IV or PO, male SD rats", "result": "well tolerated"}, {"measurement": "bioavailability", "setting": "[1]; male, Sprague-Dawley, rat, in vivo, 1000 mg/kg", "result": 0.601, "unit": "%"}, {"measurement": "AUC(0-inf)", "setting": "[1]; [10]", "result": 781, "unit": "µg·h/mL"}, {"measurement": "CI (total clearance)", "setting": "[1]; [10]", "result": 17.2, "unit": "mL/min/kg"}, {"measurement": "Cmax", "setting": "[1]; [10]", "result": "3730 ng/mL and 3730 ng/g"}, {"measurement": "Vd", "setting": "[1]; [10]", "result": 0.685, "unit": "L/kg"}, {"measurement": "Vdss", "setting": "[1]; [10]", "result": 0.685, "unit": "L/kg"}, {"measurement": "clearance", "setting": "[1]; [10]", "result": 17.2, "unit": "mL/min/kg"}, {"measurement": "total clearance as share of rat liver blood flow (=55 mL/min/kg)", "setting": "[1]; [10]", "result": "approximately 31.3%"}, {"measurement": "AUC(0-t)", "setting": "[1]; male, Sprague-Dawley, rat, in vivo, iv, 1000 mg/kg, AUC0-last", "result": 778, "unit": "µg·h/mL"}, {"measurement": "Kp", "setting": "[1]; male, Sprague-Dawley, rat, in vivo, iv, 1000 mg/kg, AUC ratio = Muscle AUC0-inf/Plasma AUC0-inf", "result": 0.234}, {"measurement": "Kp", "setting": "[1]; male, Sprague-Dawley, rat, in vivo, iv, 1000 mg/kg, mean ratios of muscle trehalose concentration to plasma concentration", "result": "2.88 to 3.76"}, {"measurement": "AUC(0-t)", "setting": "[1]; male, Sprague-Dawley, rat, in vivo, iv, 1000 mg/kg, muscle exposure AUC0-last (48 hr)", "result": 107, "unit": "µg·h/mL"}, {"measurement": "AUC0-inf/AUC0-last", "setting": "[1]; [11]", "result": 108, "unit": "%"}, {"measurement": "AUC0-last", "setting": "[1]; [11]", "result": 4.52, "unit": "µg·h/mL"}, {"measurement": "AUC(0-inf)", "setting": "[1]; [11]", "result": 4.87, "unit": "µg·h/mL"}, {"measurement": "Cmax", "setting": "[1]; [11]", "result": 4280, "unit": "ng/mL"}, {"measurement": "T1/2", "setting": "[1]; [11]", "result": 0.740, "unit": "h"}, {"measurement": "AUC(0-t)", "setting": "[1]; male, Sprague-Dawley, rat, in vivo, po, 1000 mg/kg, AUC0-last", "result": 4.52, "unit": "µg·h/mL"}, {"measurement": "MRT inf", "setting": "[1]; male, Sprague-Dawley, rat, in vivo, po, 1000 mg/kg, MRT0-inf", "result": 1.26, "unit": "h"}, {"measurement": "MRT last", "setting": "[1]; male, Sprague-Dawley, rat, in vivo, po, 1000 mg/kg, MRT0-last", "result": 1.04, "unit": "h"}, {"measurement": "half-life", "setting": "[1]; male, Sprague-Dawley, rat, in vivo, po, 1000 mg/kg, T1/2", "result": 0.74, "unit": "h"}, {"measurement": "cellular uptake and retention after rapid intravenous administration", "setting": "[1]; rat, in vivo, iv", "result": "48 to 72", "unit": "h"}, {"measurement": "AUC0-last", "setting": "[1]; rat, in vivo, iv, 1000 mg/kg", "result": 107000, "unit": "ng·h/g"}, {"measurement": "AUC(0-inf)", "setting": "[1]; rat, in vivo, iv, 1000 mg/kg", "result": 183000, "unit": "ng·h/g"}, {"measurement": "muscle samples of oral group", "setting": "[1]; rat, in vivo, po, 1000 mg/kg", "result": "below LLOQ"}, {"measurement": "plasma and muscle concentrations of trehalose, formulation administered orally", "setting": "[1]; rat, in vivo, po, 1000 mg/kg", "result": "undetectable"}, {"measurement": "LD50", "setting": "[2]; Intravenous", "result": ">1000", "unit": "mg/kg bw"}, {"measurement": "LD50", "setting": "[2]; Oral", "result": ">5000", "unit": "mg/kg bw"}, {"measurement": "signs of toxicity and deaths", "setting": "[2]; mice, oral and intravenous administration", "result": "no deaths occurred"}, {"measurement": "LD50", "setting": "[3]; Rat, Intravenous", "result": ">1000", "unit": "mg/kg bw"}, {"measurement": "signs of toxicity and deaths", "setting": "[3]; rats, oral and intravenous administration", "result": "no deaths occurred"}, {"measurement": "LD50", "setting": "[4]; Intravenous", "result": ">1000", "unit": "mg/kg bw"}, {"measurement": "LD50", "setting": "[4]; Oral", "result": ">5000", "unit": "mg/kg bw"}, {"measurement": "signs of toxicity and deaths", "setting": "[4]; dogs, oral and intravenous administration", "result": "no deaths occurred"}, {"measurement": "share of ingested trehalose absorbed into the blood stream", "setting": "[5]; oral ingestion", "result": "Less than 0.5%"}, {"measurement": "share of trehalose not absorbed into the blood stream", "setting": "[5]; oral", "result": "Over 99.5%"}, {"measurement": "safety in healthy volunteers", "setting": "[6]; oral doses 10 to 60 gr, apart from mild abdominal symptoms", "result": "no other safety issues were reported"}, {"measurement": "oral amount that causes diarrhea and bloating", "setting": "[6]; oral", "result": "40-50 gram per day"}, {"measurement": "oral amount that frequently causes diarrhea, bloating and discomfort", "setting": "[6]; oral, humans", "result": "higher than 50 g a day"}, {"measurement": "time to clearance from the plasma", "setting": "[7]", "result": "≤ 60", "unit": "min"}, {"measurement": "trehalose detected in the urine", "setting": "[7]", "result": "none was detected"}, {"measurement": "aggregation and toxicity of mutant PABPN1 proteins", "setting": "[8]", "result": "effective in reducing"}, {"measurement": "aggregate formation", "setting": "[9]", "result": "decreased aggregate formation"}, {"measurement": "muscle weakness", "setting": "[9]", "result": "attenuation of muscle weakness"}, {"measurement": "number of pathological skeletal muscle fibers", "setting": "[9]", "result": "reduced number of pathological skeletal muscle fibers"}]}]}
